Experimental data published in US20040180093A1, “Polymer compositions with bioactive agent, medical articles, and methods” (3M Innovative Properties Company, priority 2003, published 2004).

Tested on: Staphylococcus aureus bacteria
Experiment: 2 Hours % Live Bacteria Test
Assay type: cell-based
Conditions: standard solution 0.5 wt-% in DI, calculated Ag+ weight 22,224 μg
Method: The effectiveness of a sample was tested using a L-7012, Bacterial Viability Kit, available from Molecular Probes (Eugene, Oreg.). The procedure is outlined below using the red, propidium iodide dye, and green, SYTO 9 dye, contained in the kit to stain the live and dead bacteria.
Preparation of bacteria solution: Staphylococcus aureus bacteria were grown in Trypticase (Tryptic) Soy Broth (TSB) medium overnight. Bacteria were concentrated by centrifugation at 10,000× gravity for 15 minutes (min). Supernatant was removed and the pellet was re-suspended in MilliQ water (filtered through a 0.2 μm pore-size filter) or in Butterfield phosphate buffer (from Hardy Diagnostics, Santa Maria, Calif.). […]
Sample preparation: All prototypes were prepared by punching out a 1-inch (2.54-cm) diameter samples using a stainless steel punch; sometimes as indicated in the examples a 1-inch (2.54 cm) disk was further cut with scissors in eighths and then evaluated. […]
Bacteria labeling and Anti-microbial testing: 7 m]L of bacteria solution at initial concentration of approximately 1×10^8 bacteria/mL were pipetted into a 50 mL conical tube containing the sample. […] These solutions were then measured by flow cytometry. Cell viability was measured using the BD FACSCaliber flow cytometer (made by Becton Dickinson & Company, Franklin Lakes, N.J.). […]

O=[N+]([O-])[O-].[Ag+] [silver nitrate, Silver Nitrate] was tested, and the “% live bacteria after 2 hours” value was 15.8%.
